Tests used:
[1] = target: BRD9 bromodomain (Homo sapiens (Human), UniProt Q9H8M2); experiment: BRD9 bromodomain TR-FRET competition binding assay; details: Table 4; competition with biotinylated ligand, 3 nM Flag-BRD9, 90 minutes
How it was run: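 TEV-cleaved Flag-BRD9 (P133-K239, 3 nM) competed against 3.75 nM biotinylated ligand, with 7.5 nM APC-streptavidin and 0.2 nM Eu-W1024 anti-FLAG, in HEPES pH 7.4, NaCl, TCEP, Tween-20, BSA. Compounds were serially diluted 3-fold; after 90 min at room temperature the 665/615 nm emission ratio was read.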

[2] = target: Nanoluciferase-BRD9 fusion protein (Homo sapiens (Human), UniProt Q9H8M2); experiment: SYO1 BRD9 NanoLuc degradation assay; assay type: cell-based; details: Table 5A, SYO-1 cells expressing 3×FLAG-NLuc-BRD9, 6 hours; for DC50: read-out: SYO1 BRD9-NanoLuc degradation IC50
How it was run: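 Degradation was read as loss of nanoluciferase signal (Nano-Glo) after 6 h compound exposure in a stable SYO-1 line carrying 3×FLAG-NLuc-BRD9 (8000 cells/well). Normalised between DMSO (high) and a 1 μM known BRD9 degrader (low).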

Chain of BRD9 bromodomain (Q9H8M2 133-239): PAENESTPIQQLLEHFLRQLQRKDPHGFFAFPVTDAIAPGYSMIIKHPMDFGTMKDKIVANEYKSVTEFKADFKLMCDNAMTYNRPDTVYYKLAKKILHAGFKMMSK
Chain of Nanoluciferase-BRD9 fusion protein (Q9H8M2 whole entry, the tested form may be a part): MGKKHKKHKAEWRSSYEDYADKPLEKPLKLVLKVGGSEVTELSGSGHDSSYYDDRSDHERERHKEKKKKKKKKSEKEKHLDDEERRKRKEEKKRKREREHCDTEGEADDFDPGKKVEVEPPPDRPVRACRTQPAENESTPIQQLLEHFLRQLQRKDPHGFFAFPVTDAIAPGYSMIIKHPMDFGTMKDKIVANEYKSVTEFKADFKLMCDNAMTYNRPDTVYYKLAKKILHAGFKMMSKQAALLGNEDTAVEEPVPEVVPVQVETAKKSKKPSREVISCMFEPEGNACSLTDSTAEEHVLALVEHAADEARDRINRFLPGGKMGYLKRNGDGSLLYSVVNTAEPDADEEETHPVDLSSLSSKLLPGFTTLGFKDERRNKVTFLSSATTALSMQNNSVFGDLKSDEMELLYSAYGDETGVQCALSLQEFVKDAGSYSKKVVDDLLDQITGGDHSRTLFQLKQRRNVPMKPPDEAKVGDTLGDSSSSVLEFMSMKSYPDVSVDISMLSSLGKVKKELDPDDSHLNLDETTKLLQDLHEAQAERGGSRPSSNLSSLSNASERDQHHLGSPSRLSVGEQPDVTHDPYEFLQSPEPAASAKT

| SMILES | IC50 [1] [nM] | DC50 [2] [nM] | IC50 [2] [nM] |
| --- | --- | --- | --- |
| COc1cc(-c2cn(C)c(=O)c3cnccc23)cc(OC)c1CN1CCC2(CC1)CN(C(=O)COc1cccc3c1C(=O)N(C1CCC(=O)NC1=O)C3=O)CCO2 (stereo not drawn) [Compound D41, 4-[2-(9-[[2,6-dimethoxy-4-(2-methyl-1-oxo-2,7-naphthyridin-4-yl)phenyl]methyl]-1-oxa-4,9-diazaspiro[5.5]undecan-4-yl)-2-oxoethoxy]-2-(2,6-dioxopiperidin-3-yl)isoindole-1,3-dione formic acid] | < 10 | 10 to 100 | – |
| COc1cc(-c2cn(C)c(=O)c3cnccc23)cc(OC)c1CN(C)CCCN1CCC(Oc2ccc3c(c2)C(=O)N(C2CCC(=O)NC2=O)C3=O)CC1 (stereo not drawn) [Compound D52, 5-((1-(3-((2,6-dimethoxy-4-(2-methyl-1-oxo-1,2-dihydro-2,7-naphthyridin-4-yl)benzyl) (methyl)amino)propyl)piperidin-4-yl)oxy)-2-(2,6-dioxopiperidin-3-yl)isoindoline-1,3-dione formic acid] | < 10 | – | < 10 |
| COc1cc(-c2cn(C)c(=O)c3cnccc23)cc(OC)c1CN1CCN(CCCOc2ccc3c(c2)C(=O)N(C2CCC(=O)NC2=O)C3=O)CC1 (stereo not drawn) [Compound D53, 5-[3-(4-[[2,6-dimethoxy-4-(2-methyl-1-oxo-2,7-naphthyridin-4-yl)phenyl]methyl]piperazin-1-yl)propoxy]-2-(2,6-dioxopiperidin-3-yl)isoindole-1,3-dione] | < 10 | – | < 10 |
| COc1cc(-c2cn(C)c(=O)c3cc(O)ccc23)cc(OC)c1CN1CCC2(CC1)CN(C(=O)CCCOc1cccc3c1C(=O)N(C1CCC(=O)NC1=O)C3=O)CCO2 (stereo not drawn) [Compound D54, 2-(2,6-dioxopiperidin-3-yl)-4-[4-(9-[[4-(7-hydroxy-2-methyl-1-oxoisoquinolin-4-yl)-2,6-dimethoxyphenyl]methyl]-1-oxa-4,9-diazaspiro[5.5]undecan-4-yl)-4-oxobutoxy]isoindole-1,3-dione formic acid] | 10 to 100 | – | 10 to 100 |
| COc1cc(-c2cn(C)c(=O)c3cnccc23)cc(OC)c1CN(C)CC12CC(C(=O)NCCOCCOCCNc3cccc4c3C(=O)N(C3CCC(=O)NC3=O)C4=O)(C1)C2 (stereo not drawn) [Compound D55, 3-[([[2,6-dimethoxy-4-(2-methyl-1-oxo-2,7-naphthyridin-4-yl)phenyl]methyl](methyl)amino)methyl]-N-[2-[2-(2-[[2-(2,6-dioxopiperidin-3-yl)-1,3-dioxoisoindol-4-yl]amino]ethoxy)ethoxy]ethyl]bicyclo[1.1.1]pentane-1-carboxamide] | 10 to 100 | – | 100 to 1000 |
| COc1cc(-c2cn(C)c(=O)c3cnccc23)cc(OC)c1CN(C)CC12CC(C(=O)NCCCCCNc3cccc4c3C(=O)N(C3CCC(=O)NC3=O)C4=O)(C1)C2 (stereo not drawn) [Compound D56, 3-[([[2,6-dimethoxy-4-(2-methyl-1-oxo-2,7-naphthyridin-4-yl)phenyl]methyl](methyl)amino)methyl]-N-(5-[[2-(2,6-dioxopiperidin-3-yl)-1,3-dioxoisoindol-4-yl]amino]pentyl)bicyclo[1.1.1]pentane-1-carboxamide] | < 10 | – | < 10 |
| COc1cc(-c2cn(C)c(=O)c3cnccc23)cc(OC)c1CN(C)C12CC(C(=O)NCCCCCNc3cccc4c3C(=O)N(C3CCC(=O)NC3=O)C4=O)(C1)C2 (stereo not drawn) [Compound D57, 3-([[2,6-dimethoxy-4-(2-methyl-1-oxo-2,7-naphthyridin-4-yl)phenyl]methyl](methyl)amino)-N-(5-[[2-(2,6-dioxopiperidin-3-yl)-1,3-dioxoisoindol-4-yl]amino]pentyl)bicyclo[1.1.1]pentane-1-carboxamide formic acid] | 10 to 100 | – | < 10 |
| COc1cc(-c2cn(C)c(=O)c3cnccc23)cc(OC)c1CN(C)C12CC(C(=O)NCCOCCOCCNc3cccc4c3C(=O)N(C3CCC(=O)NC3=O)C4=O)(C1)C2 (stereo not drawn) [Compound D58, 3-([[2,6-dimethoxy-4-(2-methyl-1-oxo-2,7-naphthyridin-4-yl)phenyl]methyl] (methyl)amino)-N-[2-[2-(2-[[2-(2,6-dioxopiperidin-3-yl)-1,3-dioxoisoindol-4-yl]amino]ethoxy)ethoxy]ethyl]bicyclo[1.1.1]pentane-1-carboxamide] | < 10 | – | < 10 |
| COc1cc(-c2cn(C)c(=O)c3cnccc23)cc(OC)c1CN(C)C12CC(NC(=O)CCOCCOCCNc3cccc4c3C(=O)N(C3CCC(=O)NC3=O)C4=O)(C1)C2 (stereo not drawn) [Compound D59, N-[3-([[2,6-dimethoxy-4-(2-methyl-1-oxo-2,7-naphthyridin-4-yl)phenyl]methyl](methyl)amino)bicyclo[1.1.1]pentan-1-yl]-3-[2-(2-[[2-(2,6-dioxopiperidin-3-yl)-1,3-dioxoisoindol-4-yl]amino]ethoxy)ethoxy]propanamide formic acid] | < 10 | – | < 10 |
| COc1cc(-c2cn(C)c(=O)c3cnccc23)cc(OC)c1CN(C)C12CC(NC(=O)CCCCCOc3cccc4c3C(=O)N(C3CCC(=O)NC3=O)C4=O)(C1)C2 (stereo not drawn) [Compound D60, N-[3-([[2,6-dimethoxy-4-(2-methyl-1-oxo-2,7-naphthyridin-4-yl)phenyl]methyl](methyl)amino)bicyclo[1.1.1]pentan-1-yl]-6-[[2-(2,6-dioxopiperidin-3-yl)-1,3-dioxoisoindol-4-yl]oxy]hexanamide formic acid] | < 10 | – | < 10 |
| COc1cc(-c2cn(C)c(=O)c3cnccc23)cc(OC)c1CN1CCC2(CC1)CN(C(=O)COc1ccc3c(c1)C(=O)N(C1CCC(=O)NC1=O)C3=O)CCO2 (stereo not drawn) [Compound D64, 5-[2-(9-[[2,6-dimethoxy-4-(2-methyl-1-oxo-2,7-naphthyridin-4-yl)phenyl]methyl]-1-oxa-4,9-diazaspiro[5.5]undecan-4-yl)-2-oxoethoxy]-2-(2,6-dioxopiperidin-3-yl)isoindole-1,3-dione formic acid] | 10 to 100 | – | 100 to 1000 |
| COc1cc(-c2cn(C)c(=O)c3cnccc23)cc(OC)c1CN1CCN(C(=O)C2CC2CNC(=O)COc2cccc3c2C(=O)N(C2CCC(=O)NC2=O)C3=O)CC1 (stereo not drawn) [Compound D65, N-[[2-(4-[[2,6-dimethoxy-4-(2-methyl-1-oxo-2,7-naphthyridin-4-yl)phenyl]methyl]piperazine-1-carbonyl)cyclopropyl]methyl]-2-[[2-(2,6-dioxopiperidin-3-yl)-1,3-dioxoisoindol-4-yl]oxy]acetamide] | 10 to 100 | – | 100 to 1000 |
| COc1cc(-c2cn(C)c(=O)c3cnccc23)cc(OC)c1CN1CCN(C(=O)C2CC2CNC(=O)COc2ccc3c(c2)C(=O)N(C2CCC(=O)NC2=O)C3=O)CC1 (stereo not drawn) [Compound D66, N-[[2-(4-[[2,6-dimethoxy-4-(2-methyl-1-oxo-2,7-naphthyridin-4-yl)phenyl]methyl]piperazine-1-carbonyl)cyclopropyl]methyl]-2-[[2-(2,6-dioxopiperidin-3-yl)-1,3-dioxoisoindol-5-yl]oxy]acetamide formic acid] | 10 to 100 | – | 100 to 1000 |
| COc1cc(-c2cn(C)c(=O)c3cnccc23)cc(OC)c1CN1CC(S(=O)(=O)NCCCCCCNc2ccc3c(c2)C(=O)N(C2CCC(=O)NC2=O)C3=O)C1 (stereo not drawn) [Compound D67, 1-[[2,6-dimethoxy-4-(2-methyl-1-oxo-1,2-dihydro-2,7-naphthyridin-4-yl)phenyl]methyl]-N-(6-[[2-(2,6-dioxopiperidin-3-yl)-1,3-dioxo-2,3-dihydro-1H-isoindol-5-yl]amino]hexyl)azetidine-3-sulfonamide formic acid] | < 10 | – | < 10 |
| COc1cc(-c2cn(C)c(=O)c3cnccc23)cc(OC)c1CN(C)CC12CC(NC(=O)CCOCCOCCNc3cccc4c3C(=O)N(C3CCC(=O)NC3=O)C4=O)(C1)C2 (stereo not drawn) [Compound D68, N-[3-[([[2,6-dimethoxy-4-(2-methyl-1-oxo-2,7-naphthyridin-4-yl)phenyl]methyl](methyl)amino)methyl]bicyclo[1.1.1]pentan-1-yl]-3-[2-(2-[[2-(2,6-dioxopiperidin-3-yl)-1,3-dioxoisoindol-4-yl]amino]ethoxy)ethoxy]propanamide formic acid] | < 10 | 100 to 1000 | – |
| COc1cc(-c2cn(C)c(=O)c3cnccc23)cc(OC)c1CN(C)CC12CC(NC(=O)CCCCOc3cccc4c3C(=O)N(C3CCC(=O)NC3=O)C4=O)(C1)C2 (stereo not drawn) [Compound D69, N-[3-[([[2,6-dimethoxy-4-(2-methyl-1-oxo-2,7-naphthyridin-4-yl)phenyl]methyl](methyl)amino)methyl]bicyclo[1.1.1]pentan-1-yl]-5-[[2-(2,6-dioxopiperidin-3-yl)-1,3-dioxoisoindol-4-yl]oxy]pentanamide] | < 10 | – | < 10 |
| COc1cc(-c2cn(C)c(=O)c3cnccc23)cc(OC)c1CN(C)CCCOCCN1CCN(c2ccc3c(c2)C(=O)N(C2CCC(=O)NC2=O)C3=O)CC1 (stereo not drawn) [Compound D70, 5-(4-[2-[3-([[2,6-dimethoxy-4-(2-methyl-1-oxo-2,7-naphthyridin-4-yl)phenyl]methyl](methyl)amino)propoxy]ethyl]piperazin-1-yl)-2-(2,6-dioxopiperidin-3-yl)isoindole-1,3-dione formic acid] | 10 to 100 | – | 10 to 100 |
| COc1cc(-c2cn(C)c(=O)c3cnccc23)cc(OC)c1CN(C)CC(=O)NCCCC(=O)NC12CC(Nc3cccc4c3C(=O)N(C3CCC(=O)NC3=O)C4=O)(C1)C2 (stereo not drawn) [Compound D71, 4-(2-((2,6-dimethoxy-4-(2-methyl-1-oxo-1,2-dihydro-2,7-naphthyridin-4-yl)benzyl) (methyl)amino)acetamido)-N-(3-((2-(2,6-dioxopiperidin-3-yl)-1,3-dioxoisoindolin-4-yl)amino)bicycle[1.1.1]pentan-1-yl)butanamide] | < 10 | < 10 | – |

— patent US11414416B1, “Compounds and uses thereof” (Foghorn Therapeutics Inc., priority 2019, dated 2022)
